The results in this text go back to ChEMBL document CHEMBL4765469, “2-((3,5-Dinitrobenzyl)thio)quinazolinones: Potent Antimycobacterial Agents Activated by Deazaflavin (F)-Dependent Nitroreductase (Ddn)” (J Med Chem, 2021).

SMILES strings stand for the structures. ≈ marks a conversion by molar mass, not a printed value.

Series [1] is described as follows: Inhibition of Mycobacterium tuberculosis thymidylate kinase.
Series [2] deals with Mycobacterium tuberculosis. The series is described as follows: Antitubercular activity against Mycobacterium tuberculosis H37Rv. The format is functional.
Series [3] has as its system Mycobacterium tuberculosis. Description: Ratio of MIC for antitubercular activity against Mycobacterium tuberculosis H37Rv ATCC 27294 grown under 7H9/ glucose liquid culture in presence of BSA to MIC for antitubercular activity against Mycobacterium tuberculosis H37Rv ATCC 27294 grown under 7H9/ glucose liquid culture. The settings on record: read-out: MIC>99. In kind it is functional.

Series [4] can be described thus: Genotoxicity in Salmonella typhimurium TA100 up to 349 uM incubated for 48 hrs in presence of rat liver S9 fraction by Ames test. In kind it is toxicity, subcellular. As to conditions: salmonella enterica subsp. enterica serovar typhimurium, s9, 48 h.
Series [5] has as its system Mycobacterium tuberculosis. Description: Antitubercular activity against Mycobacterium tuberculosis H37Rv ATCC 27294 grown under GAST/Fe medium assessed as inhibition of all visible growth incubated for 7 to 14 days. In kind it is functional. The settings on record: time 7-14 day.
The subject of series [6] is Mycobacterium tuberculosis. The series is described as follows: Antitubercular activity against Mycobacterium tuberculosis H37Rv ATCC 27294 grown under 7H9/ glucose liquid culture in presence of BSA assessed as inhibition of all visible growth incubated for 7 to 14 days. In kind it is functional. The settings on record: time 7-14 day.
The test system of series [7] is Mycobacterium tuberculosis. The series is described as follows: Antitubercular activity against Mycobacterium tuberculosis H37Rv ATCC 27294 grown under 7H9/ADC assessed as inhibition of all visible growth incubated for 7 to 14 days. The settings on record: time 7-14 day. The format is functional.
The test system of series [8] is Mycobacterium tuberculosis. The series is described as follows: Antitubercular activity against Mycobacterium tuberculosis 14A1 deficient in nitroreductase rv3547 assessed as inhibition of all visible growth grown under 7H9/ glucose liquid culture incubated for 7 to 14 days. In kind it is functional. As to conditions: time 7-14 day.
Series [9] can be described thus: Cytotoxicity in human MRC5 cells by neutral red uptake assay. The format is cell-based.
The nature of series [10]: Genotoxicity in Salmonella typhimurium TA100 up to 349 uM incubated for 48 hrs in absence of rat liver S9 fraction by Ames test. As to conditions: salmonella enterica subsp. enterica serovar typhimurium, s9, 48 h. The format is toxicity. (The Ames test uses bacterial strains that need an amino acid and regain growth without it when mutated back.)
Series [11] relates to Mycobacterium tuberculosis. Description: Antitubercular activity against Mycobacterium tuberculosis H37Rv ATCC 27294 grown under Middlebrook 7H9 Broth assessed as inhibition of all visible growth incubated for 7 to 14 days. The format is functional. As to conditions: time 7-14 day.
A short description of series [12]: Inhibition of Mycobacterium tuberculosis thymidylate kinase in presence of ATP, dTMP, NADH and phosphoenol pyruvate by spectrophotometric assay.
A short description of series [13]: Genotoxicity in Salmonella typhimurium TA98 up to 349 uM incubated for 48 hrs in presence of rat liver S9 fraction by Ames test. The format is toxicity, subcellular. The settings on record: salmonella enterica subsp. enterica serovar typhimurium, s9, 48 h.
Series [14] can be described thus: Genotoxicity in Salmonella typhimurium TA98 up to 349 uM incubated for 48 hrs in absence of rat liver S9 fraction by Ames test. In kind it is toxicity. As to conditions: salmonella enterica subsp. enterica serovar typhimurium, s9, 48 h.

As for `COc1cccc(-c2cc(SC)c(C#N)c(=O)[nH]2)c1`, the 50% inhibitory concentration (IC50) in series [1] came out at 1.5 µM. Moreover, the MIC in series [2] is more than 64 µM.

Consider `O=c1[nH]c(SCc2cc([N+](=O)[O-])cc([N+](=O)[O-])c2)nc2ccccc12`, for which the MIC ratio, with BSA / without BSA in [3] turned out to be 2.6 µM. The Activity entry in [4] was “Non-Toxic”; in series [10], “Non-Toxic”; in series [13], “Non-Toxic”; in series [14] it was “Toxic”. In addition, the MIC99 in series [5] worked out at 0.78 µM (≈ 0.28 µg/mL); in series [6], 1.56 µM; in [7], 2.3 µM (≈ 0.824 µg/mL); in [8], 12.5 µM (≈ 4.48 µg/mL); in [11] it was 0.6 µM (≈ 0.215 µg/mL). Moreover, the CC50 in series [9] is more than 64 µM. Besides, the half-maximal inhibitory concentration (IC50) in series [12] is 120 µM.

For orientation: IC50 means the point on the concentration scale where inhibition reaches its midpoint. What is called MIC is the smallest concentration in the dilution series that meets the test's criterion for growth inhibition. Lower therefore signals a more susceptible organism. A word on the MIC99: it is the lowest concentration that inhibits either 99% of growth or 99% of the strains tested, depending on the study. As usually defined, the CC50 is the concentration giving 50% cytotoxicity. A high value points to lower toxicity to the cells.
